Source: ChEMBL document CHEMBL1135754, “Arylsulfonamidothiazoles as a new class of potential antidiabetic drugs. Discovery of potent and selective inhibitors of the 11beta-hydroxysteroid dehydrogenase type 1” (J Med Chem, 2002)
Calls of active or inactive are those of the source. No cut-off for these calls is given here.

Legend:
[1] = biological target: T1, 11-beta-hydroxysteroid dehydrogenase 1 (Mus musculus, UniProt P50172); experiment: In vitro inhibitory activity against mouse 11 beta hydroxysteroid dehydrogenase type 1 using scintillation proximity assay (SPA)
[2] = biological target: 11-beta-hydroxysteroid dehydrogenase type 2 (Homo sapiens, UniProt P80365); experiment: Ability to convert [3H]cortisol to the tritium labeled cortisone in the presence of human 11 beta hydroxysteroid dehydrogenase type 2
[3] = biological target: 11-beta-hydroxysteroid dehydrogenase type 2 (Mus musculus) (UniProt P51661); experiment: Inhibitory activity against mouse 11 beta hydroxysteroid dehydrogenase type 2 at a concentration of 0.2 mM; NI means no inhibition
[4] = biological target: T1, 11-beta-hydroxysteroid dehydrogenase 1; experiment: In vitro inhibitory activity against mouse 11 beta hydroxysteroid dehydrogenase type 1 using scintillation proximity assay (SPA).

Sequence of 11-beta-hydroxysteroid dehydrogenase type 2 (P80365 whole entry, looked up): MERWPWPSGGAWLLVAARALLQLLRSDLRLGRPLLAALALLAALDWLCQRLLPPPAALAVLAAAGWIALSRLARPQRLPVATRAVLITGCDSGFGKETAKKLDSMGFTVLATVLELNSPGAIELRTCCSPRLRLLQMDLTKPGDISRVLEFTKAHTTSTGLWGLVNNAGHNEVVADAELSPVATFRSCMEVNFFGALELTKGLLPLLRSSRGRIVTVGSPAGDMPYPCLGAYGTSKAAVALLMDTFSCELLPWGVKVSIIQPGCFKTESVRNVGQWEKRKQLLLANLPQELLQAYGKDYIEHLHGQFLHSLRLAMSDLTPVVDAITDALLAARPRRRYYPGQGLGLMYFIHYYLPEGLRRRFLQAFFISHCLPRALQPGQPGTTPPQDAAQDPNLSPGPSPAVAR
Sequence of 11-beta-hydroxysteroid dehydrogenase type 2 (Mus musculus) (P51661 whole entry, looked up): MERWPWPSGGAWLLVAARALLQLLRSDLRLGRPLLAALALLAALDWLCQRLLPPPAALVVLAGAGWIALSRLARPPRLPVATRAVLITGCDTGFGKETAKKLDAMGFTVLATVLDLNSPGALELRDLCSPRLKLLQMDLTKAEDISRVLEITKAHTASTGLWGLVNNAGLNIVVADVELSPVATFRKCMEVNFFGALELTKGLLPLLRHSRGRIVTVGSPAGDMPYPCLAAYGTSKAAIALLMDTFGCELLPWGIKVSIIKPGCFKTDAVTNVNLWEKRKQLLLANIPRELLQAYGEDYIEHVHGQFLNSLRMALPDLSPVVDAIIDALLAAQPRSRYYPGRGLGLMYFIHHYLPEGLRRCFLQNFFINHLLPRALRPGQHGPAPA

Compound	IC50 [1] [µM]	IC50 [2] [µM]	NI [3]	IC50 [4] [µM]
Cc1c(Cl)cccc1S(=O)(=O)Nc1nc(CC(=O)N2CCN(C)CC2)cs1	[…]	> 10	inactive	
CCN(CC)C(=O)Cc1csc(NS(=O)(=O)c2cccc(Cl)c2C)n1		> 10		[…]
